Data from the supplement of paper PMC7695840.
Values joined by “and” are separate entries in the source; they are usually repeats but may differ in a detail not shown here. Equal values may be shown once. Where a name gives a salt, the structure may show the parent alone.

Experiments:
[1] = system: Staphylococcus aureus MW2 (mecA+); experiment: IC50 (growth, competition assay); settings: cefoxitin: subinhibitory
How it was run: (§1)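 Signals from DsRed (540/590) and GFP (485/520) were scaled on every plate between single-strain control medians, with No Treatment then set to 0.5. The cells were a 1:1 mix of pre-induced fluorescent S. aureus MW2 strains with and without the resistance gene, grown unshaken for 20 h at 37 °C and 90% humidity in LB in 1536-well plates under a subinhibitory drug dose set each day. Each strain's IC50 was defined as the dose halving the No Treatment signal, or the maximal signal.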

[2] = system: Staphylococcus aureus MW2 delta-mecA (mecA-); experiment: IC50 (growth, competition assay); settings: cefoxitin: subinhibitory
How it was run: as §1

Row | Compound | IC50 ([1]; fluorescent label: DsRed) | IC50 ([1]; fluorescent label: GFP) | IC50 ([2]; fluorescent label: DsRed) | IC50 ([2]; fluorescent label: GFP)
1 | CCn1cc(C(=O)O)c(=O)c2cc(F)c(N3CCNC(C)C3)c(F)c21 (stereo not given) [Lomefloxacin hydrochloride] | < 9.85 µM | < 9.85 µM | < 9.85 µM | < 9.85 µM
2 | CCOc1ccc2ccccc2c1C(=O)N[C@@H]1C(=O)N2[C@@H]1SC(C)(C)[C@@H]2C(=O)O [NALLPEN] | < 9.85 µM | < 9.85 µM | < 9.85 µM | < 9.85 µM
3 | C=C1c2cccc(O)c2C(=O)C2=C(O)[C@]3(O)C(=O)C(C(N)=O)=C(O)[C@@H](N(C)C)[C@@H]3[C@@H](O)[C@H]12 [Methacycline hydrochloride (Physiomycine)] | 0.702 µM | 0.644 µM | < 0.498 µM | < 0.498 µM
4 | CCn1nc(C(=O)O)c(=O)c2cc3c(cc21)OCO3 [CINOBAC] | > 150 µM | 115 µM | 108 µM | 125 µM
5 | CCCCCCCCOc1ccccc1C(=O)Nc1ccc(C(=O)OCC[N+](C)(CC)CC)cc1 [Otilonium Bromide] | < 9.85 µM | < 9.85 µM | < 9.85 µM | < 9.85 µM
6 | CC(=O)OCC1=C(C(=O)O)N2C(=O)[C@@H](NC(=O)Cc3cccs3)[C@H]2SC1 [Cephalothin sodium] | < 9.85 µM | < 9.85 µM | < 9.85 µM | < 9.85 µM
7 | Oc1c(Cl)cc(Cl)cc1Sc1cc(Cl)cc(Cl)c1O [LOROTHIDOL] | < 9.85 µM | < 9.85 µM | < 9.85 µM | < 9.85 µM
8 | NC1CCN(c2c(F)cc3c(=O)c(C(=O)O)cn(C4CC4)c3c2Cl)C1 (stereo not given) | < 9.85 µM | < 9.85 µM | < 9.85 µM | < 9.85 µM
9 | Cc1ccc(Sc2ccccc2N2CCNCC2)c(C)c1 | 43.5 µM | 54.2 µM | < 9.85 µM | 14.3 µM
10 | NC[C@H]1O[C@H](O[C@H]2[C@H](O)[C@@H](O[C@H]3O[C@H](CO)[C@@H](O)[C@H](N)[C@H]3O)[C@H](N)C[C@@H]2N)[C@H](N)C[C@@H]1O [Tobramycin] | 16 µM | 27.6 µM | 32 µM | 33.8 µM
11 | C[C@@H](Oc1cc(-c2cnn(C3CCNCC3)c2)cnc1N)c1c(Cl)ccc(F)c1Cl | 101 µM | 108 µM | 20.9 µM | 17 µM
12 | O=C(O)c1ccc(-n2nc(-c3ccccc3O)nc2-c2ccccc2O)cc1 [Deferasirox (Exjade)] | 91.6 µM | 57.1 µM | 22.6 µM | 24.3 µM
13 | NC(N)=NC(=O)c1nc(Cl)c(N2CCCCCC2)nc1N [5-(N,N-hexamethylene)amiloride] | 90.9 µM | 108 µM | 46.2 µM | 60.9 µM
14 | CCCc1c(-c2ccc(O)cc2)nn(-c2ccc(O)cc2)c1-c1ccc(O)cc1 [1,3,5-tris(4-hydroxyphenyl)-4-propyl-1H-pyrazole] | 12.5 µM | 20.3 µM | < 9.85 µM | < 9.85 µM
15 | CC[C@H]1OC(=O)[C@H](C)[C@@H](O[C@H]2C[C@@](C)(OC)[C@@H](O)[C@H](C)O2)[C@H](C)[C@@H](O[C@@H]2O[C@H](C)C[C@H](N(C)C)[C@H]2O)[C@](C)(O)C[C@@H](C)CN(C)[C@H](C)[C@@H](O)[C@]1(C)O [Azithromycin (Zithromax)] | 22.8 µM | 15.7 µM | 0.827 µM | 1.29 µM
16 | O=C1NC(=O)/C(=C/c2cccc(C(F)(F)F)c2)S1 [SMI-4a] | < 9.85 µM | < 9.85 µM | < 9.85 µM | 12.2 µM and 14.6 µM
17 | C[C@@H](NCCCc1cccc(C(F)(F)F)c1)c1cccc2ccccc12 [AMG-073 HCl (Cinacalcet hydrochloride)] | 48.8 µM | 54.9 µM | 13.4 µM | < 9.85 µM
18 | CCN(CC)CCOc1ccc(C(=C(Cl)c2ccccc2)c2ccccc2)cc1 [CLOMID] | 23.7 µM | 34.5 µM | 15.5 µM | < 9.85 µM
19 | COc1cccc2c1[C@@H]1CN(CCCCn3c(=O)[nH]c4c(sc5ncc(-c6ccccc6)nc54)c3=O)C[C@@H]1CO2 [Fiduxosin hydrochloride] | 28.5 µM | 29.8 µM | 10.5 µM | 12.6 µM
20 | N#Cc1cc([N+](=O)[O-])c2sc(C(N)=O)[n+]([O-])c2c1 [BTO-1] | 19.5 µM | 18.9 µM | < 9.85 µM | < 9.85 µM
21 | C[N+](C)(C)CC(O)CC(=O)[O-] (racemic) [DL-Carnitine hydrochloride] | > 150 µM | > 150 µM | > 150 µM | 139 µM
22 | Cc1ccc(C(=O)c2cc(O)c(O)c([N+](=O)[O-])c2)cc1 [Tolcapone] | < 9.85 µM | 14.4 µM | < 9.85 µM | < 9.85 µM
23 | O=C(N/N=C/c1ccc([N+](=O)[O-])o1)c1ccc(O)cc1 [NIFUROXAZIDE] | < 9.85 µM | 54.6 µM | 46.2 µM | < 9.85 µM
24 | CCC(=O)O[C@H]1[C@H](O[C@@H]2[C@@H](C)[C@H](O[C@H]3C[C@@](C)(OC)[C@@H](O)[C@H](C)O3)[C@@H](C)C(=O)O[C@H](CC)[C@@](C)(O)[C@H](O)[C@@H](C)C(=O)[C@H](C)C[C@@]2(C)O)O[C@H](C)C[C@@H]1N(C)C [ILOSONE] | < 9.85 µM | 17 µM | < 9.85 µM | < 9.85 µM
25 | CCOC(=O)c1ccc(N2NC(=O)C(=Cc3ccc([N+](=O)[O-])o3)C2=O)cc1 [PYR-41] | 58.8 µM | 79.3 µM | 24.1 µM | 19 µM
26 | COc1cc2c(c(OC)c1OC)-c1ccc(=O)c(O)cc1[C@@H](NC(C)=O)CC2 [COLCHICEINE] | 81.3 µM | 84.6 µM | 45.5 µM | 51.2 µM
27 | Oc1ccc(Cl)c2cccnc12 [CLOXYQUIN] | 26.9 µM | 89.7 µM | 33.8 µM | < 9.85 µM
28 | N[C@@H]1[C@H]2CN(c3nc4c(cc3F)c(=O)c(C(=O)O)cn4-c3ccc(F)cc3F)C[C@@H]12 [Trovafloxacin mesylate] | < 9.85 µM | < 9.85 µM | < 9.85 µM | < 9.85 µM
29 | O=[N+]([O-])C=Cc1ccc2c(c1)OCO2 [MNS] | 20.5 µM | 27.1 µM | < 9.85 µM | < 9.85 µM
30 | O=C1C2CC=CCC2C(=O)N1SC(Cl)(Cl)Cl (stereo not given) [CAPTAN] | 15.7 µM | 18 µM | < 9.85 µM | < 9.85 µM
